Changes are numbered by the printed parent chain.
Columns and labels:
Type in all cases: binding
[1] = target: T1, Vt (vinculin tail domain) (Gallus gallus, UniProt P12003); experiment: high-speed lipid cosedimentation with LUVs, protein titration; settings: protein titrated at fixed 10% PIP2 in PE/PC/PS/PIP2 LUVs; Kd in protein concentration; 40 mM Hepes, 150 mM NaCl, pH 7.4, room temperature; read-out: Protein concentration (μM) / app Kd
T1 construct: gene VCL; tail domain residues 879-1066; N-terminal His-tag removed by TEV; pQlinkH; E. coli BL21(DE3)
T1 sequence (P12003 879-1066 isoform P12003-1): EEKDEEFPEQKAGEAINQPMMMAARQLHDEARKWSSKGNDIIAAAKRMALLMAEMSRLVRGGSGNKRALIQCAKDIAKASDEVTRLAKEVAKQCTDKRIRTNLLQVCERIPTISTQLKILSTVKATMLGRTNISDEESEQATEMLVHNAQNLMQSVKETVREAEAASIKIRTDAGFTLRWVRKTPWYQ
Text: high-speed lipid cosedimentation with LUVs, protein titration on Vt (vinculin tail domain)

[2] = target: T2, MVt (metavinculin tail domain) (Homo sapiens, UniProt P18206); experiment: high-speed lipid cosedimentation with LUVs, PIP2 gradient; settings: 10 μM protein, PE/PC/PS LUVs with 0-30 mol% PIP2; one-site fit; pH 7.4, room temperature; the table also has a μM column, which looks inconsistent with the lipid amount
T2 construct: gene VCL; tail domain residues 879-1134; N-terminal His-tag removed by TEV; 2HR-T vector; E. coli BL21(DE3)
T2 sequence (P18206 879-1134): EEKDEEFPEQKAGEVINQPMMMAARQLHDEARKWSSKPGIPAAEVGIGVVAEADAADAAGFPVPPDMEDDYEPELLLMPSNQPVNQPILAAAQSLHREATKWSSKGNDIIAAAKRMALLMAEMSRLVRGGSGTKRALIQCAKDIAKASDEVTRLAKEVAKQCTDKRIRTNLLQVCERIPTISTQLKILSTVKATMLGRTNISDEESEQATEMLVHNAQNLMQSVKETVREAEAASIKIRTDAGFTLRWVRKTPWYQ
Text: (§1) high-speed lipid cosedimentation with LUVs, PIP2 gradient on MVt (metavinculin tail domain)

[3] = target: T3, MVt (metavinculin tail domain) (Homo sapiens, UniProt P18206, A934V); experiment: as above; settings: 10 μM protein, PE/PC/PS LUVs with 0-30 mol% PIP2; one-site fit; pH 7.4, room temperature; the table also has a μM column, which looks inconsistent with the lipid amount
T3 construct: gene VCL; tail domain residues 879-1134; N-terminal His-tag removed by TEV; 2HR-T vector; E. coli BL21(DE3)
T3 sequence (P18206 879-1134 A934V): T2 sequence (P18206 879-1134) with A56V
Text: as §1

[4] = target: T1, Vt (vinculin tail domain); experiment: as above; settings: 10 μM protein, PE/PC/PS LUVs with 0-30 mol% PIP2; one-site fit; pH 7.4, room temperature; the table also has a μM column, which looks inconsistent with the lipid amount
Text: high-speed lipid cosedimentation with LUVs, PIP2 gradient on Vt (vinculin tail domain)

[5] = target: T2, MVt (metavinculin tail domain); experiment: high-speed lipid cosedimentation with LUVs, protein titration; settings: protein titrated at fixed 10% PIP2 in PE/PC/PS/PIP2 LUVs; Kd in protein concentration; 40 mM Hepes, 150 mM NaCl, pH 7.4, room temperature; read-out: Protein concentration (μM) / app Kd
Text: high-speed lipid cosedimentation with LUVs, protein titration on MVt (metavinculin tail domain)

**Q.** How did the Kd [1] turn out when “L-α-phosphatidylinositol-4,5-bisphosphate [PIP2]” was run?
**A.** The Kd was 4.94 ± 1.56 µM.

**Q.** And the “PIP2 (%) / app Kd” value [2]?
**A.** Its value is 9.20 ± 1.80 % PIP2 (mol%) in liposomes.

**Q.** And the “PIP2 (%) / app Kd” value [3]?
**A.** Its value is 9.94 ± 2.52 % PIP2 (mol%) in liposomes.

**Q.** And the “PIP2 (%) / app Kd” value [4]?
**A.** Its value is 8.89 ± 1.25 % PIP2 (mol%) in liposomes.

**Q.** And the Kd [5]?
**A.** Its Kd is 4.66 ± 1.62 µM.

Reference: paper PMC12180986, “Molecular basis for differential PIP2-mediated association between vinculin and its splice isoform metavinculin” (The Journal of Biological Chemistry, 2025)
